In patent publication US11707448B2, “Combination therapies for the treatment of cancer” (Eisai R&D Management Co., Ltd., priority 2014, dated 2023):

Columns and labels:
CT26 tumors = test: CT26 subcutaneous tumor model, ER-886046 with radiation; type: in vivo, mice
Experimental: FIG. 1A to FIG. 1B. […] Panel shown in FIG. 1A) Average tumor sizes of the CT26 tumor-bearing mice that received 9 Gy radiation+ER-886046, 9 Gy radiation alone, or vehicle alone. Panel shown in FIG. 1B) Average animal body weight of the CT-26 tumor-bearing mice. Radiation treatment: 9 Gy single dose on day 9; ER-886046 dosing: 150 mg/kg, oral (po) administration daily from day 9 to day 32. Administration of radiation and ER-886046 to the tumor-bearing mice is indicated by the arrows and bars, respectively. N=10-12 per group. *, p<0.05, student t-test.
FIG. 2A to FIG. 2C. Tumor growth plots of the individual CT-26 tumors treated with radiation/ER-886046 or radiation alone. The animals are of the experiment described in FIG. 1A and FIG. 1B. Panel shown in FIG. 2A) Vehicle treatment group. Panel shown in FIG. 2C) Radiation plus ER-886046. N=10-12 per group. […] Radiation treatment: 9 Gy single dose on day 9; ER-886046 dosing: 150 mg/kg, oral (po) administration daily from day 9 to day 32. Each line represents an individual animal.
FIG. 3. Improved tumor growth suppression and animal survival by low dose radiation/ER-886046 compared with low dose radiation alone. Plots of animal survival status among indicated treatment groups. Radiation treatment: 3 Gy single dose on day 17; ER-886046 dosing: 150 mg/kg, po administration daily from days 17 to 45. […] N=10 per group. *, p<0.05; ***, p<0.001; Gehan-Breslow-Wilcoxon test.
(§1) Animal studies; In vitro cultured cancer cells were harvested and suspended in 100 μl of phosphate buffered saline at a cell concentration of 1.0×10^5 cells/ml and subcutaneously (sc) injected into the mice using a 26 g syringe on day 0. At the days post cell implantation as indicated in the figures, the mice were randomized based on the tumor size followed by treatments with radiation at 3 or 9 Gy dose per treatment, anti-PDL1 at 200 μg/mouse per intraperitoneal injection (ip), or anti-CTLA4 at 200 or 100 μg/mouse per ip injection with or without orally administration of ER-886046 at a dose of 150 mg/kg. The animals that were assigned to the treatment groups in individual study had close mean tumor weights in all groups. The tumor sizes were measured twice a week by a digital caliper (Mitutoyo Corp), and the volume was calculated using the formula (1×w^2)/2=mm^3, where 1 and w refer to the larger and smaller perpendicular dimensions collected at each measurement. Graphs of group tumor sizes (mean±SEM) and body weights (mean±SEM) versus time were plotted using software GraphPad Prism 6 (Lake Forest, Calif.). Student t-test and Gehan-Breslow-Wilcoxon test were used for statistical analysis.

4T1 tumors = test: Challenge of cured (tumor-free) mice with 4T1 cells; type: in vivo; settings: mice cured by ER-886046 + radiation; vs control (naive) group
Description: FIG. 4A to FIG. 4C. Long lasting anti-tumor effect with a memory immune response by ER-886046/radiation treatment. Panel shown in FIG. 4A) Tumor growth in the cured mice by ER-886046 and radiation combination treatment or in the naïve Ba1B/c mice that received injection of CT26 cells. Panel shown in FIG. 4B) Tumor growth of secondarily challenged CT-26 tumors in the cured mice or in naïve mice. Panel shown in FIG. 4C) Growth of 4T1 tumors in cured mice or in naïve mice. N=9-10. Note the complete rejection of challenged CT-26 tumor and reduced growth of challenged 4T1 tumors in the combination cured mice. ***, p<0.001. 2 tailed student t-test. Note that no treatment was applied to any animals.
In case of tumor rechallenge of tumor-free mice after treatments, CT26 cells and 4T1 cells were individually sc injected into the different flanks of the same mouse, and the growth of each tumor was measured and graphed as described above. Naïve mice that received neither cancer cell injection nor drug treatment were included as controls. […] At the end of study on day 27, the mice in all treatment groups were intranasally administered luciferin and the lungs were resected and analysed for luciferase expression using IVIS instrument. Quantification of the luciferase activity in the lungs was achieved by software Living Image.

[1] = test system: immune cells in the CT26 tumors; test: Flow cytometry of intratumoral immune cells in CT26 tumors; type: in vivo, mice
Experimental: FIG. 7A to FIG. 7B. Radiation and ER-886046 worked synergistically to modify the intratumoral immunity. Panel shown in FIG. 7A) Quantification of myeloid cells (CD11b^+) and cytotoxic T cells (CD8^+) in the CT26 tumors that received 9 Gy alone, 9 Gy+ER-886046, or vehicle alone. Panel shown in FIG. 7B) Quantification of myeloid-derived suppressor cells (MDSC cells, CD11b^+Gr1^+) in the tumors. Radiation was given once to the tumors on the day of randomization, while ER-886046 was administered po daily administrated at 150 mg/kg to the animals for 7 consecutive days after randomization. The tumors were analyzed by flow cytometry one day after the last dose of ER-886046. **, p<0.01; ns, not significant; student t-test.
Flow cytometry; CT26 tumors with or without treatments received were surgically resected and minced by physical pressure, followed by digestion with collagenase I at 1 mg/ml at 37° C. for 1 h. The single cell mixtures from the digestion were labelled by incubation with fluorescent antibodies against immune cell antigens and analysed by flow cytometry. Cell population calculation was performed by software FlowJo 7.6.

B16F10 melanoma tumors = test: B16F10 melanoma model, ER-886046 with anti-CTLA4; type: in vivo, mice
Experimental: FIG. 8A to FIG. 8B. Synergistic anti-tumor activity of ER-886046 with anti-CTLA4 in B16F10 tumors. Panel shown in FIG. 8A) Anti-tumor growth activities of anti-CTLA4 and ER-886046 in B16F10 melanoma tumors growing in C57BL/6 mice. Panel shown in FIG. 8B) Animal body weight changes of the treatment groups. Anti-CTLA4 dosing: 200 μg for the first intravenous (iv) injection on day 3 after transplantation and 100 μg for the other three iv injections on days 6, 9 and 12 as indicated by the arrows. ER-886046 dosing: 150 mg/kg, po daily administration from day 3 to day 15 as indicated by the bars. *, p<0.05; **, p<0.01; ns, not significant; student t test.
as §1

[2] = ER-886046 150 mg/kg po daily day 9-32 + radiation 9 Gy single dose day 9

C[C@H](NC(=O)c1c(C(F)F)nn(C)c1Oc1cccc(C(F)(F)F)c1)c1ccc(C(=O)O)cc1 [ER-886046]
gross health and animal body weight compared to radiation alone (CT26 tumors; ER-886046 150 mg/kg po daily added to 9 Gy radiation): did not impact the gross health and animal body weight | tumors with fast progression (CT26 tumors; ER-886046 150 mg/kg po daily day 9-32 + radiation 9 Gy): 1 out of 12 | anti-tumor activity compared to radiation alone (CT26 tumors; [2]): statistically significantly improved | tumor growth (average tumor size) (CT26 tumors; [2]): sustained tumor growth inhibition until the end of the study on day 49 | cure (complete tumor regression) (CT26 tumors; ER-886046 150 mg/kg po daily day 9-32 + radiation 9 Gy, end of study): 9 out of 12 | animal survival (CT26 tumors; ER-886046 150 mg/kg po daily days 17-45 + low dose radiation 3 Gy single dose day 17, vs vehicle or radiation alone): significantly increased the animal survival | tumor recurrence in the 9 tumor-free mice (CT26 tumors; cured by ER-886046 + radiation, followed for an additional 2 months): no tumor recurrence | growth of 4T1 tumors in cured mice (4T1 tumors): no rejection of the tumor, but the growth rate was significantly reduced | ratio of Gr1+ cells among CD45+CD11b+ cells (MDSC) ([1]; ER-886046 150 mg/kg po daily 7 days + 9 Gy radiation, vs vehicle or radiation alone): reduced the ratio of Gr1^+ cells among CD45^+CD11b^+ cells | tumor infiltration frequency of CD8+ T cells and CD11b+ myeloid cells ([1]; ER-886046 150 mg/kg po daily 7 days added to 9 Gy radiation, vs radiation alone): no additional significant effect | anti-tumor growth activity, combination (B16F10 melanoma tumors; ER-886046 150 mg/kg po daily day 3-15 + anti-CTLA4 200/100 μg days 3, 6, 9, 12): highly significant anti-tumor activity | animal body weight (B16F10 melanoma tumors; ER-886046 + anti-CTLA4 combination): No animal body weight loss | anti-tumor growth activity, single agent (B16F10 melanoma tumors; alone, ER-886046 150 mg/kg po daily day 3-15, anti-CTLA4 200 μg day 3, 100 μg days 6, 9, 12): minimal activity
